Experimental data as given in US6864356B2, “Sixteen amino acid of the antineoplastic protein (ANUP) as a pharmacologically active anti-tumor agent” (priority 1997, dated 2005).
Non-standard residues stand in square brackets, D forms with d. No end group written: not given here. pGlu = O=C1CC[C@@H](C(=O)O)N1

Tests used:
[1] = tested on: human breast tumor cell line (MDA 231); assay: in vitro antitumor (tumor killing) assay, neutral red dye, 96 well plates; format: cell-based; conditions: MDA 231 cells
Procedure: The antitumor activity of the peptide (P16) was assayed against the human breast tumor cell line (MDA 231) and its activity was compared to the in vitro antitumor effect of the “pure” protein (ANUP).
The assay for the pharmacological antitumor activities were performed as follows utilizing 96 well plates—
20,300-30,000 human breast tumor cells in L-15 medium (200 μl) containing 2.5% fetal calf serum and 100 μg gentamycin per ml (complete medium) were incubated at 37° in air for 120 hours; after this incubation period 50 μl of serially diluted P16 and ANUP were added to each well. […] The solutions were diluted in complete medium containing 0.05% SDS to a concentration of 350 μg per ml.
Dilution plates were prepared as follows:
100 μl of complete medium were added to each well and 50 μl of diluted P16 and ANUP were added to each well in row A thus 1.3 dilution was accomplished; 50 μl were serially diluted in the 100 μl of medium in rows B through H. Thus the range of concentrations were from 6 μg to 2 mg when 50 μl each dilution series were added to the 200 μl of the complete medium containing the MDA cells. The plates were incubated for an additional 96-120 hours. The medium was poured off and after a 90-minute incubation with 50 μl neutral red dye (0.5 ml neutral red (0.25% ethanol (0.6 ml) diluted 5.5 saline-0.16 mm HCl) the cells were washed twice with PBS (phosphate buffer saline) at room temperature. The concentration of living cells (since only living cells absorb the dye) was determined after adding 100 μl lysing buffer (50% ethanol in 0.05 m NaH2 PO4) the concentration of neutral red released in each well was determined using a Dynetech plate reader set at […]. A unit of activity was defined as the concentration of ANUP and P16 for 50% killing.

tumor cells = conditions: electron microscopy (Struve et al. 1990); cited from earlier work

With “synthetic hexadeca peptide (16 L-amino acids), partial N-terminal sequence of ANUP: Pyroglu-Leu-Lys-Cys-Tyr-Thr-Cys-Lys-Glu-Pro-Met-Thr-Ser-Ala-Ala-Cys (SEQ ID NO: 1) ([pGlu]LKCYTCKEPMTSAAC; cysteine pairing not given here) [P16]” the “Fraction of the Activity relative to ANUP” value ([1]; + 0.005% SDS) was 0.04, the “Fraction of the Activity relative to ANUP” value ([1]; + 0.02% SDS) was 0.50 and the “Fraction of the Activity relative to ANUP” value ([1]; + 0.05% SDS) was 0.50. For the same substance, the “antitumor activity in the absence of SDS” value ([1]; absence of SDS) was “neither the peptide nor the protein showed any antitumor activity”, the “activity compared to the protein (ANUP), molar basis” value ([1]; in vitro) was “about 50%” and the IC50 ([1]; medium containing SDS, 96-120 hours incubation, read-out: 50% end point (concentration for 50% killing)) was 22 nM. The “Fraction of the Activity relative to ANUP” value ([1]; no SDS) was “± no Activity”, the “weight of peptide required relative to weight of protein (ANUP) for equal activity” value ([1]; weight basis) was “one tenth” and the “effect on tumor cells by electron microscopy” value (tumor cells) was “complete degradation of the cells”.
